# Source: US20200338028A1, “BENZENESULFONAMIDE DERIVATIVES AND METHOD FOR MODULATING LIPID RAFT” (Gongwin Biopharm Co., Ltd., priority 2017, published 2020)
# What was measured:
# Type in all cases: cell-based, human
# DU-145 cells [1] = assay: Western blot of Bcl-2 family members, cell cycle regulators and Akt/mTOR/p70S6K pathway signals
# Experimental: (§1) In addition, protein expression assay of each Mcl-1, Bcl-2, Bid, PUMA and Bak was performed by western blotting with methods described as follows. After treatment of PC-3 and DU145 cells with p-TSA, the cells were harvested with trypsinization, centrifuged and lysed in 0.1 ml of lysis buffer containing 10 mM Tris-HCl (pH 7.4), 150 mM NaCl, 1 mM EGTA, 1% Triton X-100, 1 mM PMSF, 10 μg/ml leupeptin, 10 μg/ml aprotinin, 50 mM NaF and 100 μM sodium orthovanadate. Total protein was quantified, mixed with the sample buffer and boiled at 90° C. for 5 min. Equal amount of protein (30 μg) was separated by electrophoresis in 8% or 12% SDS-PAGE, transferred to PVDF membranes and detected with specific antibodies (1:1000 dilution) for each of Mcl-1, Bcl-2, Bid, PUMA and Bak proteins. The immunoreactive proteins after incubation with appropriately labeled secondary antibody (1:3000 dilution) were detected with an enhanced chemiluminescence detection kit (Amersham, Buckinghamshire, United Kingdom). […] These effects were correlated with the mitochondrial stress.
# (§2) During G1 phase, cells grow in size and synthesize mRNA and proteins which are necessary to DNA synthesis. The serine/threonine kinases mTOR and p70S6K that regulate protein synthesis (mRNA translation) through affecting the phosphorylation or activities of several downstream translation factors are critical regulators in G1 phase. Protein expression assay of each Akt, mTOR 4E-BP1 and p70S6K was performed by Western blotting.
# PC-3 cells [2] = assay: as above
# Experimental: as §1, §2
# normal prostate cells = assay: SRB assay, anti-proliferative effect; conditions: primary prostate cells, compared with CRPC cells, FIG. 1A
# Experimental: Two castration-resistant prostate cancer (CRPC) cell lines of PC-3 and DU-145 were cultured in RPMI 1640 medium with 5% FBS (v/v), penicillin (100 units/ml) and streptomycin (100 μg/ml). Cultures were maintained in a 37° C. incubator with 5% CO2, and adherent cultures were passaged using 0.05% trypsin-EDTA when they reached about 80% confluence. Prostate cells were from human tissue samples which were obtained following informed consent of the donors and after full review by the Ethics Review Committee at National Taiwan University Hospital. The prostate specimens were from males by transurethral resection of the prostate. All patients with prostatism histories were diagnosed to have benign prostate hyperplasia by rectal digital examination, transrectal sonography of prostate and urodynamic studies. […] SRB assay is an accurate and reproducible assay based upon quantitative SRB staining of cellular proteins, and the process for SRB assay was performed as follows. […] The absorbance of SRB was measured at a wavelength of 515 nm at the time of p-TSA addition (hereinafter referred to as time zero, TZ), and after additional incubation of DMSO (hereinafter referred to as control growth, CTL) or p-TSA (hereinafter referred to as Tx). The percentage of cell growth inhibition was calculated by the formula of [1−(Tx−TZ)/(CTL−TZ)]×100%. […]
# PC-3 cells [3] = assay: propidium iodide staining, cell cycle distribution by flow cytometry; conditions: PC-3, 24 h, FIG. 2A
# Experimental: Flow cytometric analysis was performed as follows. Cells were harvested by trypsinization, fixed with 70% (v/v) alcohol at 4° C. for 30 min and washed with PBS. After centrifugation, the cells were incubated in phosphate-citric acid buffer (0.2 mol/l NaHPO4, 0.1 mol/l citric acid, pH 7.8) for 30 min at room temperature. The cells were then centrifuged and resuspended with 0.5 ml propidium iodide (PI) solution containing Triton X-100 (0.1% v/v), RNase (100 μg/ml) and PI (80 μg/ml). DNA content was analyzed with the FACScan and CellQuest software (Becton Dickinson, Mountain View, Calif., United States).
# DU-145 cells [4] = assay: colony formation (clonogenic) assay; conditions: DU-145, 10 days, FIG. 1B
# Experimental: To assay the anchorage-dependent clonogenic effect, each individual PC-3 and DU-145 cells (150 cells/well) were seeded in a 6-well plate. After a 10-day treatment with p-TSA, the cell colonies were rinsed with phosphate-buffered saline (PBS), stained with 0.4% (w/v) crystal violet dissolved in 20% methanol, and lysed by 50 mM sodium citrate dissolved in 50% ethanol. The absorbance was read at a wavelength of 595 nm.
# DU-145 cells [5] = assay: JC-1 staining, mitochondrial membrane potential; conditions: DU-145, 24 h, JC-1, FIG. 2B
# Experimental: (§3) Mitochondria generate the majority of ATP to synthesize bioactive components such as proteins, lipids and nucleotides for cell growth and proliferation. The stress onto mitochondria and interference with ATP production have shown to induce cell cycle arrest. Measurement of mitochondrial membrane potential (ΔΨm) was performed as follows. JC-1, a mitochondrial dye staining mitochondria in living cells in a membrane potential-dependent fashion, was used to determine the mitochondrial membrane potential (ΔΨm). PC-3 and DU145 cells were treated with or without p-TSA. Thirty minutes before the termination of incubation, the cells were incubated with JC-1 (final concentration of 5 μM) at 37° C. for 30 min. The cells were finally harvested, and the accumulation of JC-1 was determined using flow cytometric analysis. […] An increase in the permeability of the outer mitochondrial membrane that leads to the release of apoptogenic factors is the key to cell apoptosis. Mitochondrial membrane permeability is directly controlled by Bcl-2 family of proteins.
# PC-3 cells [6] = assay: JC-1 staining, mitochondrial membrane potential; conditions: PC-3, 24 h, JC-1, FIG. 2B
# Experimental: as §3
structure (smiles),measurement,setting,value
"Cc1ccc(S(N)(=O)=O)cc1 [p-TSA, para-toluenesulfonamide]",phosphorylation of Akt,"DU-145 cells [1]; DU-145, 6 mM p-TSA",not modified
same,p21 and p27 expression,"DU-145 cells [1]; DU-145, 6 mM p-TSA, FIG. 3A",neither p21 nor p27 expression was modified
same,"phosphorylation of mTOR, 4E-BP1 and p70S6K","DU-145 cells [1]; DU-145, 6 mM p-TSA, FIGS. 3B and 3C",inhibitory effect
same,expressions of PUMA and Bak,"DU-145 cells [1]; DU-145, 24 h, Western blot",increase
same,protein expression of Mcl-1,"DU-145 cells [1]; DU-145, 24 h, Western blot, FIG. 2D",significantly decreased
same,cyclin D1 protein expression,"DU-145 cells [1]; Rb-mutant DU-145, 6 mM p-TSA, FIG. 3A",decrease
same,phosphorylation of Akt,"PC-3 cells [2]; PC-3, 6 mM p-TSA",inhibited
same,Rb phosphorylation,"PC-3 cells [2]; PC-3, 6 mM p-TSA, FIG. 3A",decrease
same,cyclin D1 protein expression,"PC-3 cells [2]; PC-3, 6 mM p-TSA, FIG. 3A",decrease
same,p21 and p27 expression,"PC-3 cells [2]; PC-3, 6 mM p-TSA, FIG. 3A",neither p21 nor p27 expression was modified
same,"phosphorylation of mTOR, 4E-BP1 and p70S6K","PC-3 cells [2]; PC-3, 6 mM p-TSA, FIGS. 3B and 3C",inhibitory effect
same,expressions of PUMA and Bak,"PC-3 cells [2]; PC-3, 24 h, Western blot",increase
same,anti-proliferative activity in normal prostate cells,normal prostate cells,lower anti-proliferative activity
same,cell apoptosis,PC-3 cells [3],accelerated cell apoptosis
same,distribution of cell populations in cell cycle phases,PC-3 cells [3],accumulation of both PC-3 cells and DU-145 cells in G1 phase
same,"anti-proliferative effect, clonogenic assay",DU-145 cells [4],long-term anti-proliferative effect
same,mitochondrial membrane potential,DU-145 cells [5],concentration-dependent decrease
same,mitochondrial membrane potential,PC-3 cells [6],concentration-dependent decrease
